Key:
Staphylococcus aureus [1] = assay: Antibacterial activity against NXL-101-resistant Staphylococcus aureus A-234 harboring DNA gyrase subunit A D83N mutant assessed as growth inhibition by broth microdilution method; assay type: functional
Pseudomonas aeruginosa = assay: Antibacterial activity against wild type Pseudomonas aeruginosa ATCC 27853 assessed as growth inhibition by broth microdilution method; assay type: functional
Staphylococcus aureus [2] = assay: Antibacterial activity against wild type Staphylococcus aureus ATCC 29213 assessed as growth inhibition by broth microdilution method; assay type: functional
Topoisomerase IV = Topoisomerase IV (Staphylococcus aureus, UniProt P0C1S7+P0C1U9); assay: Inhibition of wild type Staphylococcus aureus ATCC 29213 topoisomerase-4 subunit 2GrlA/2GrlB assessed as pBR322 relaxation after 1 hr; assay type: protein-complex assay
Escherichia coli = assay: Antibacterial activity against wild type Escherichia coli ATCC 25922 assessed as growth inhibition by broth microdilution method; assay type: functional
hERG (KCNH2) = hERG (KCNH2) (Homo sapiens, UniProt Q12809); assay: Inhibition of human ERG expressed in CHO cells at 10 uM after 3 mins by patch clamp assay relative to control; assay type: cell-based; conditions: CHO cells that express human ERG
DNA gyrase = DNA gyrase (Staphylococcus aureus, UniProt P0A0K8+P20831); assay: Inhibition of wild type Staphylococcus aureus DNA gyrase subunit 2GyrA/2GyrB assessed as pBR322 supercoiling after 1 hr; assay type: protein-complex assay
Streptococcus pneumoniae = assay: Antibacterial activity against wild type Streptococcus pneumoniae ATCC 49619 assessed as growth inhibition by broth microdilution method; assay type: functional
[3] = Inhibition of wild type Escherichia coli ATCC 25922 DNA gyrase subunit 2GyrA/2GyrB assessed as pBR322 supercoiling after 1 hr
[4] = Inhibition of wild type Escherichia coli ATCC 25922 DNA topoisomerase-4 subunit 2ParC/2ParE assessed as pBR322 relaxation after 1 hr

| SMILES | MIC (Staphylococcus aureus [1]) [µg/mL] | MIC (Pseudomonas aeruginosa) [µg/mL] | MIC (Staphylococcus aureus [2]) [µg/mL] | IC50 (Topoisomerase IV) [nM] | MIC (Escherichia coli) [µg/mL] | inhibition at 0.05 h, 10 µM (hERG (KCNH2)) [%] | IC50 (DNA gyrase) [nM] | MIC (Streptococcus pneumoniae) [µg/mL] | IC50 [3] [nM] | IC50 [4] [nM] |
| --- | --- | --- | --- | --- | --- | --- | --- | --- | --- | --- |
| COc1ccc2ncc(F)c([C@@H](O)[C@H](O)[C@@H]3CC[C@@H](NCc4ccc5c(n4)NC(=O)CS5)CO3)c2c1 | > 8 | > 8 | 0.25 | 8000 | 4 | 15 | 125 | 0.25 | 2000 | 125 |
| COc1cc(F)c2nccc([C@@H](O)[C@H](O)[C@@H]3CC[C@@H](NCc4ccc5c(n4)NC(=O)CS5)CO3)c2c1 | 4 | > 8 | 0.03 | 8000 | 4 | 20 | 125 | 0.25 | 2000 | 125 |
| COc1ccc2nccc([C@@H](O)[C@H](O)[C@@H]3CC[C@@H](NCc4ccc5c(n4)NC(=O)CS5)CO3)c2c1 | > 8 | > 8 | 0.25 | 8000 | 4 | 24 | 250 | 0.25 | 2000 | 125 |
| COc1cnc2ccc(F)c([C@@H](O)[C@H](O)[C@@H]3CC[C@@H](NCc4cc5c(cn4)OCCO5)CO3)c2n1 | 8 | > 8 | ≤ 0.015 | 8000 | 8 | 11 | 125 | 0.125 | 8000 | 500 |
| COc1cnc2ccc(F)c([C@@H](O)[C@H](O)[C@@H]3CC[C@@H](NCc4cc5c(cn4)OCCS5)CO3)c2n1 | 2 | > 8 | ≤ 0.015 | 8000 | 8 | 33 | 30 | 0.03 | 8000 | 125 |
| COc1cnc2ccc(F)c([C@@H](O)[C@H](O)[C@@H]3CC[C@@H](NCc4cc5c(nn4)OCCS5)CO3)c2n1 | 8 | > 8 | ≤ 0.015 | > 8000 | > 8 | 0 | 125 | 0.125 | 8000 | 2000 |
| COc1ccc2ncc(F)c([C@@H](O)[C@H](O)[C@@H]3CC[C@@H](NCc4cc5c(cn4)OCCO5)CO3)c2n1 | 2 | > 8 | 0.03 | 8000 | > 8 | 10 | 30 | 0.03 | 8000 | 125 |
| COc1ccc2ncc(F)c([C@@H](O)[C@H](O)[C@@H]3CC[C@@H](NCc4cc5c(nn4)OCCS5)CO3)c2n1 | 8 | > 8 | ≤ 0.015 | 8000 | > 8 | 3 | 125 | 0.06 | 8000 | 500 |
| COc1ccc2ncc(F)c([C@@H](O)[C@H](O)[C@@H]3CC[C@@H](NCc4cc5c(nn4)OCCO5)CO3)c2n1 | > 8 | > 8 | 0.125 | > 8000 | > 8 | 7 | 125 | 0.5 | > 8000 | 2000 |
| COc1ccc2nccc(/C=C/[C@@H]3CC[C@@H](NCc4ccc5c(n4)NC(=O)CS5)CO3)c2n1 | 4 | > 8 | 0.125 | 2000 | 4 | 94 | 125 | 1 | 500 | 30 |
| COc1ccc2nccc(/C=C/[C@@H]3CC[C@@H](NCc4cc5c(cn4)OCCO5)CO3)c2n1 | > 8 | > 8 | 0.25 | > 8000 | > 8 | 88 | 125 | 1 | > 8000 | – |
| COc1ccc2nccc(CC[C@@H]3CC[C@@H](NCc4cc5c(cn4)OCCO5)CO3)c2n1 | 4 | > 8 | 0.06 | > 8000 | 8 | 82 | < 30 | 0.5 | 8000 | 125 |
| COc1ccc2nccc([C@@H](O)[C@H](O)[C@@H]3CC[C@@H](NCc4ccc5c(n4)NC(=O)CS5)CO3)c2n1 | 0.5 | > 8 | 0.03 | 500 | 1 | 36 | < 30 | 0.06 | 500 | 125 |
| COc1ccc2nccc([C@@H](O)[C@H](O)[C@@H]3CC[C@@H](NCc4cc5c(cn4)OCCO5)CO3)c2n1 | 4 | > 8 | 0.06 | 8000 | 8 | 27 | 30 | 0.5 | 8000 | 125 |
| COc1ccc2nccc([C@@H](O)[C@H](O)[C@H]3CC[C@H](NCc4ccc5c(n4)NC(=O)CS5)CO3)c2n1 | > 8 | > 8 | 0.5 | > 8000 | 4 | 45 | 125 | 0.5 | 8000 | 125 |
| COc1ccc2nccc([C@H](O)[C@@H](O)[C@@H]3CC[C@@H](NCc4ccc5c(n4)NC(=O)CS5)CO3)c2n1 | > 8 | > 8 | 1 | > 8000 | > 8 | 93 | 500 | 1 | 8000 | 125 |
| COc1ccc2nccc([C@H](O)[C@@H](O)[C@H]3CC[C@H](NCc4ccc5c(n4)NC(=O)CS5)CO3)c2n1 | 0.5 | > 8 | 0.03 | 8000 | 1 | 70 | 30 | 0.03 | 500 | 125 |
| COc1ccc2cccc([C@@H](O)[C@H](O)[C@@H]3CC[C@@H](NCc4ccc5c(n4)NC(=O)CS5)CO3)c2n1 | 0.25 | > 8 | 0.03 | 500 | 2 | 72 | 30 | 0.06 | 125 | 125 |
| COc1cnc2cccc([C@@H](O)[C@H](O)[C@@H]3CC[C@@H](NCc4ccc5c(n4)NC(=O)CS5)CO3)c2c1 | > 8 | > 8 | 0.25 | 500 | 8 | 17 | 125 | 0.25 | 2000 | 125 |
| COc1cnc2ccc(F)c([C@@H](O)[C@H](O)[C@@H]3CC[C@@H](NCc4ccc5c(n4)NC(=O)CS5)CO3)c2n1 | 1 | > 8 | 0.06 | 2000 | 4 | 44 | 30 | 0.5 | 500 | 125 |
| COc1ccc2nccc(OC[C@@H]3CC[C@@H](NCc4ccc5c(n4)NC(=O)CS5)CO3)c2n1 | 4 | > 8 | 0.5 | 8000 | 4 | 70 | 125 | 0.25 | 2000 | – |
| COc1ccc2nccc(OC[C@@H]3CC[C@@H](NCc4cc5c(cn4)OCCO5)CO3)c2n1 | > 8 | > 8 | 2 | > 8000 | > 8 | 19 | 500 | 4 | > 8000 | – |
| COc1ccc2nccc(NC(=O)[C@@H]3CC[C@@H](NCc4ccc5c(n4)NC(=O)CS5)CO3)c2n1 | > 8 | > 8 | 0.25 | 2000 | > 8 | 99 | 125 | 0.5 | 500 | – |
| COc1ccc2nccc(NC(=O)[C@@H]3CC[C@@H](NCc4cc5c(cn4)OCCO5)CO3)c2n1 | > 8 | > 8 | 0.125 | > 8000 | > 8 | 71 | 125 | 0.25 | > 8000 | – |
| COc1ccc2nccc(C(O)C[C@@H]3CC[C@@H](NCc4cc5c(cn4)OCCO5)CO3)c2n1 (mixture of isomers) | > 8 | > 8 | 0.03 | > 8000 | > 8 | 66 | 125 | 0.125 | > 8000 | – |
